This is an account of results in US8552032B2, “Bicyclic derivatives useful as inhibitors of DPP-1” (Janssen Pharmaceutica NV, priority 2009, dated 2013).

As a reminder, the IC50 is the midpoint of a concentration-inhibition curve.

T1 sequence (P53634 25-463): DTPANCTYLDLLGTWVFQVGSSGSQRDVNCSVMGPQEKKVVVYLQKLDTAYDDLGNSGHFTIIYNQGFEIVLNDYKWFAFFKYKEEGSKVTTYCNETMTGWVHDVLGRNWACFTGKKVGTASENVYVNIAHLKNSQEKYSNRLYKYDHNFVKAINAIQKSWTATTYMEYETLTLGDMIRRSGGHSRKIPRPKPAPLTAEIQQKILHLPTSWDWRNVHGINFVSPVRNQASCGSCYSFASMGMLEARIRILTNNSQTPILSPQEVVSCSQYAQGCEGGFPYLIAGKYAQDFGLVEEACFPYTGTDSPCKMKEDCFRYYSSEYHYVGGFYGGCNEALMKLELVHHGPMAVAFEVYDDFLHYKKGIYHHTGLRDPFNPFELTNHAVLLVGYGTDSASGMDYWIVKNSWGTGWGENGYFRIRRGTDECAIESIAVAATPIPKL

This test concerns the target T1, recombinant human DPP-1 (Cathepsin C) (Homo sapiens, UniProt P53634).
T1 construct: made in house
Description: DPP-1 Inhibition Assay (in vitro), fluorogenic substrate GR-AMC. Conditions: 0.15 nM DPP-1, 10 uM GR-AMC, pH 7.0, room temperature; average value where tested multiple times. The format is biochemical. On the procedure:
Test compounds were assessed for DPP-1 (Cathepsin C) inhibitory activity using a fluorogenic substrate, GR-AMC (Glycine-Arginine-amino-4-methylcoumarin, Bachem, 1-1215). The amount of amino-methylcoumarin released is proportional to the DPP-1 activity, and the reaction is monitored kinetically with a Molecular Devices plate reader using black 96-well plates.
All compounds were tested under room temperature conditions. The assay buffer consisted of 50 mM HEPES, pH 7.0, 100 mM NaCl, 2 mM glutathione (GSH), and 0.002% TWEEN 20. GSH and TWEEN 20 were added to the buffer fresh daily. Just prior to use, an in-house preparation of recombinant human DPP-1 (240 μM stock, MW 49.6 kD) was diluted 600-fold in assay buffer containing fresh 2 mM dithiothreitol (DTT) to activate the enzyme, then diluted into assay buffer (without DTT) 133-fold for a DPP-1 working solution of 3 nM. Test compounds were diluted in DMSO for 20× their final assay concentrations.
Additions to a 96-well black Costar 3915 plates were as follows: 90 μL of 11 μM GR-AMC, 5 μL test compound (followed by mixing), and 5 μL 3 nM DPP1 to start the reaction. Fluorescent reactions were monitored kinetically at 360 nm excitation, 440 nm emission on a Molecular Devices Spectramax XPS reader. The Softmax Pro software of the reader determined the initial velocity of the selected data (the first 3-5 minutes of the reaction), and the best linear regression fit of the initial kinetic data. Final assay conditions were 0.15 nM DPP-1, 10 uM GR-AMC, 50 mM HEPES, pH 7.0, 100 mM NaCl, 2 mM GSH, 0.002% TWEEN 20, 1 uM DTT, 5.0% DMSO. Initial velocity rates were plotted vs. test compound concentration by use of a four-parameter logistics equation (nonlinear regression, sigmoidal dose-response (variable slope), with fixed Hill (1.0) using GraphPad Prism® software for determination of DPP-1 IC50. Within-run assay coefficient of variation (CV) was generally <10%; between-run CV <20%.
Representative compounds of the present invention were tested according to the procedure as described above, with results as listed in Table 12, below.
Consider `CC[C@H](N)C(=O)NCCCc1cc2cc(-c3ccc4c(c3)OCO4)ccc2[nH]1` [Compound 112], for which the IC50 came out at 520 nM.

As to `CC[C@H](N)C(=O)NCCCc1cc2cc(C(=O)Nc3ccc(C(C)(C)C)cc3)ccc2[nH]1` [Compound 78], the 50% inhibitory concentration (IC50) was 910 nM.

For `CC[C@H](N)C(=O)NCCCc1cc2cc(C(=O)Nc3cc[nH]n3)ccc2[nH]1` [Compound 61], the IC50 was determined as 4300 nM.

For `CC[C@H](N)C(=O)NCCCc1cc2cc(C(=O)Nc3cnc4ccccc4c3)ccc2o1` [Compound 64], the IC50 was determined as 350 nM.

With `CCN(CCCc1cc2cc(C(=O)Nc3ccc(OC)c(OC)c3)ccc2[nH]1)C(=O)[C@@H](N)Cc1cccs1` [Compound 118], the IC50 was 370 nM.

Take `COc1ccc(-c2ccc3[nH]c(C4CCN(C(=O)C(N)c5ccsc5)CC4)cc3c2)cc1OC` (centres unmarked) [Compound 30]: the IC50 is above 20000 nM.

On to `CC[C@H](N)C(=O)NCCCc1cc2cc(-c3ccccc3)ccc2o1` [Compound 45], for which the IC50 stood at 9600 nM.

For the compound `COc1ccc(-c2ccc3[nH]c(C4CCN(C(=O)[C@@H](N)Cc5cccs5)CC4)cc3c2)cc1OC` [Compound 2, (S)-2-amino-1-(4-(5-(3,4-dimethoxyphenyl)-1H-indol-2-yl)piperidin-1-yl)-3-(thiophen-2-yl)propan-1-one], the IC50 was determined as 94 nM.

Turning to `CC[C@H](N)C(=O)NCCCc1cc2cc(C(=O)NCc3ccccc3)ccc2o1` [Compound 53], the IC50 is 7400 nM.

In the case of `CC[C@H](N)C(=O)NCCCc1cc2cc(C(=O)N3CCc4ccccc4C3)ccc2o1` [Compound 84], the IC50 was 1000 nM.

For the compound `CC[C@H](N)C(=O)NCCCc1cc2ccc(C(=O)N(CC)CC)cc2o1` [Compound 46], the IC50 came to 42000 nM.

Turning to `CC[C@H](N)C(=O)NCCCc1cc2cc(C(=O)Nc3ccccc3OC)ccc2[nH]1` [Compound 88], the IC50 stood at 1000 nM.

`CC[C@H](N)C(=O)NCCCc1cc2cc(C(=O)Nc3ccccc3)ccc2o1` [Compound 51]: the 50% inhibitory concentration (IC50) stood at 4100 nM.

On to `CC[C@H](N)C(=O)NCCCc1cc2cc(C(=O)Nc3ccc4ncsc4c3)ccc2o1` [Compound 57], for which the IC50 came to 700 nM.

As to `COc1ccc(-c2ccc3[nH]c(C4CCN(C(=O)[C@@H](N)Cc5ccco5)CC4)cc3c2)cc1OC` [Compound 13], the IC50 was found to be 850 nM.

Take `CC[C@H](N)C(=O)NCCCc1cc2cc(C(=O)Nc3ccc(OC)c(OC)c3)ccc2o1` [Compound 58]: the IC50 was determined as 730 nM.

As to `N[C@@H](Cc1cccs1)C(=O)N1CCC(c2cc3ccccc3o2)CC1` [Compound 1], the IC50 worked out at 1200 nM.

With `CC[C@H](N)C(=O)NCCCc1cc2cc(C(=O)Nc3cccc4ccncc34)ccc2o1` [Compound 68], the IC50 was 710 nM.

On to `CC[C@H](N)C(=O)NCCCc1cc2cc(C(=O)Nc3ccc(F)c(F)c3)ccc2[nH]1` [Compound 81], for which the IC50 was 790 nM.

With `COc1ccc(-c2ccc3[nH]c(C4CCN(C(=O)[C@@H](N)Cc5cn(C)cn5)CC4)cc3c2)cc1OC` [Compound 14], the IC50 worked out at 3370 nM.

`CC[C@H](N)C(=O)NCCCc1cc2cc(C(=O)Nc3cccc4ncccc34)ccc2o1` [Compound 55]: the IC50 turned out to be 220 nM.

Take `N[C@@H](Cc1cccs1)C(=O)N1CCC(c2cc3cc(-c4cccc(C(=O)O)c4)ccc3[nH]2)CC1` [Compound 21]: the IC50 was determined as 540 nM.

Take `CC[C@H](N)C(=O)NCCCc1cc2cc(C(=O)Nc3ccc(F)cc3)ccc2[nH]1` [Compound 79]: the IC50 amounted to 1300 nM.

`CC[C@H](N)C(=O)NCCCc1cc2cc(C(=O)Nc3ncnc4[nH]ncc34)ccc2[nH]1` [Compound 63]: the IC50 stood at 2500 nM.

With `CC[C@H](N)C(=O)NCCCc1csc2ccccc12` [Compound 43], the 50% inhibitory concentration (IC50) stood at 14000 nM.

In the case of `COc1ccc(-c2ccc3[nH]c(C4CCN(C(=O)[C@@H](N)Cc5cccs5)CC4)nc3c2)cc1OC` [Compound 18, (S)-2-amino-1-(4-(5-(3,4-dimethoxyphenyl)-1H-benzo[d]imidazol-2-yl)piperidin-1-yl)-3-(thiophen-2-yl)propan-1-one], the IC50 was found to be 210 nM.

For `COc1ccc(-c2ccc3[nH]c(C4CCN(C(=O)[C@@H](N)Cc5nc(C)cs5)CC4)cc3c2)cc1OC` [Compound 22], the IC50 is 18000 nM.

Consider `CC[C@H](N)C(=O)NCCCc1cc2cc(Oc3ccccc3)ccc2[nH]1` [Compound 98], for which the IC50 turned out to be 480 nM.

Turning to `CC[C@H](N)C(=O)NCCCc1cc2cc(C(=O)Nc3ccc(C)cc3)ccc2[nH]1` [Compound 75], the IC50 amounted to 1100 nM.

Turning to `N[C@@H](Cc1cccs1)C(=O)N1CCC(c2cc3cc(-c4ccc(C(=O)O)cc4)ccc3[nH]2)CC1` [Compound 27], the IC50 is 590 nM.

`CC[C@H](N)C(=O)NCCCc1cc2cc(-c3ccccc3C(N)=O)ccc2[nH]1` [Compound 116]: the IC50 was found to be 2000 nM.

Consider `CC[C@H](N)C(=O)NCCCc1cc2cc(-c3ccncc3)ccc2[nH]1` [Compound 114], for which the IC50 is 670 nM.

As to `NC(=O)c1cccc(-c2ccc3[nH]c(C4CCN(C(=O)[C@@H](N)Cc5nccs5)CC4)cc3c2)c1` [Compound 8], the IC50 was found to be 460 nM.

For the compound `CC[C@H](N)C(=O)NCCc1nc2ccccc2[nH]1` [Compound 38], the IC50 worked out at 6500 nM.

With `COc1ccc(NC(=O)c2ccc3[nH]c(CCCN(C)C(=O)[C@@H](N)Cc4cccs4)cc3c2)cc1OC` [Compound 106, (S)-2-(3-(2-amino-N-methyl-3-(thiophen-2-yl)propanamido)propyl)-N-(3,4-dimethoxyphenyl)-1H-indole-5-carboxamide], the IC50 came to 82 nM.

Regarding `CC[C@H](N)C(=O)NCCCc1cc2cc(C(=O)Nc3cccc4[nH]cnc34)ccc2o1` [Compound 85], the IC50 was determined as 2400 nM.

Consider `N#Cc1cccc(-c2ccc3[nH]c(C4CCN(C(=O)[C@@H](N)Cc5cccs5)CC4)cc3c2)c1` [Compound 20], for which the IC50 is 200 nM.

Consider `CC[C@H](N)C(=O)NCCCc1cc2cc(C(=O)Nc3cc(-c4ccccc4)[nH]n3)ccc2[nH]1` [Compound 62], for which the IC50 is 2800 nM.

With `CC[C@H](N)C(=O)NCCCc1cc2cc(C(=O)Nc3ccc(OC)c(OC)c3)ccc2[nH]1` [Compound 50, (S)-2-(3-(2-aminobutanamido)propyl)-N-(3,4-dimethoxyphenyl)-1H-indole-5-carboxamide], the half-maximal inhibitory concentration (IC50) turned out to be 240 nM.

For `CC[C@H](N)C(=O)NCCCc1cc2cc(C(=O)Nc3ccc4c(c3)S(=O)(=O)C=C4)ccc2o1` [Compound 86], the IC50 is 1000 nM.

Turning to `CC[C@H](N)C(=O)NCCCc1cc2cc(C(=O)Nc3cccc(Cl)c3)ccc2[nH]1` [Compound 91], the IC50 is 800 nM.

Consider `CC[C@H](N)C(=O)NCCCc1cc2ccccc2o1` [Compound 42], for which the IC50 amounted to 3300 nM.

For `CC[C@H](N)C(=O)NCCc1cc2cc(C(=O)Nc3ccc(OC)c(OC)c3)ccc2[nH]1` [Compound 36], the IC50 is above 10000 nM.

On to `CC[C@H](N)C(=O)NCCCc1cc2cc(-c3ccc(F)cc3)ccc2[nH]1` [Compound 101], for which the IC50 turned out to be 790 nM.

As for `CC[C@H](N)C(=O)NCCCc1cc2cc(C(=O)NC3CCNc4ccccc43)ccc2o1` (some centres unmarked) [Compound 73], the IC50 came to 1800 nM.

With `COc1ccc(-c2ccc3[nH]c(C4CCN(C(=O)[C@@H](N)Cc5cccs5)CC4)cc3c2)cn1` [Compound 25], the half-maximal inhibitory concentration (IC50) turned out to be 250 nM.

Consider `COc1ccc(NC(=O)c2ccc3[nH]c(C4CCN(C(=O)[C@@H](N)Cc5cccs5)CC4)cc3c2)cc1OC` [Compound 7], for which the IC50 turned out to be 140 nM.

With `CC[C@H](N)C(=O)NCCCc1cc2cc(C(=O)Nc3ccc(OC)c(OC)c3)ccc2[nH]1` (single isomer, unassigned) [Compound 110], the IC50 is above 10000 nM.

For `COc1ccc(-c2ccc3[nH]c(C4CCN(C(=O)C(N)c5ccco5)CC4)cc3c2)cc1OC` (centres unmarked) [Compound 29], the IC50 is above 20000 nM.

Take `COc1ccc(-c2ccc3[nH]c(C4CCN(C(=O)[C@@H](N)Cc5cccs5)CC4)cc3c2)cc1` [Compound 4]: the IC50 was 330 nM.

In the case of `CC[C@H](N)C(=O)NCCCc1cc2cc(C(=O)Nc3ccc4ncccc4c3)ccc2o1` [Compound 67], the IC50 came out at 200 nM.

On to `CC[C@H](N)C(=O)NCCCc1cc2cc(C(=O)Nc3cccc(OC)c3)ccc2[nH]1` [Compound 92], for which the 50% inhibitory concentration (IC50) was determined as 350 nM.

Turning to `N[C@@H](Cc1cccs1)C(=O)N1CCC(c2cc3cc(-c4ccc5c(c4)OCCO5)ccc3[nH]2)CC1` [Compound 3], the IC50 is 270 nM.

For the compound `CC[C@H](N)C(=O)NCCCc1cc2cc(-c3cccc(S(N)(=O)=O)c3)ccc2[nH]1` [Compound 113], the IC50 is 700 nM.

On to `CC[C@H](N)C(=O)N1CCC(c2cc3cc(-c4ccc(OC)c(OC)c4)ccc3[nH]2)CC1` [Compound 9], for which the IC50 was 3700 nM.

Regarding `N[C@@H](Cc1cccs1)C(=O)N1CCC(c2cc3cc(-c4ccncc4)ccc3[nH]2)CC1` [Compound 26], the concentration for half-maximal inhibition (IC50) amounted to 230 nM.
